Test results reported in PubChem BioAssay (NCI).
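Following 48 hours of exposure in 96-well plates, responses at five concentrations were used to interpolate endpoints linearly. Here, GI50 denotes the concentration required for 50% inhibition of growth. TGI denotes the concentration required for complete inhibition of growth.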

How the values were obtained:
Assay in all cases: inhibition of tumour cell growth, NCI panel, 48 h; in the data active = GI50 below about 0.43 µM; inactive = the rest
A549 NSCLC = system: A549 NSCLC
HOP-92 NSCLC = system: HOP-92 NSCLC
SK-OV-3 ovarian = system: SK-OV-3 ovarian
UACC-62 melanoma = system: UACC-62 melanoma
MALME-3M melanoma = system: MALME-3M melanoma
NCI-H226 lung = system: NCI-H226 lung
MOLT-4 leukemia = system: MOLT-4 leukemia
HS 578T breast = system: HS 578T breast
NCI/ADR-RES ovarian = system: NCI/ADR-RES ovarian
MCF7 breast = system: MCF7 breast
K-562 leukemia = system: K-562 leukemia
RPMI-8226 leukemia = system: RPMI-8226 leukemia
SR leukemia = system: SR leukemia
IGROV1 ovarian = system: IGROV1 ovarian
DU-145 prostate = system: DU-145 prostate
T-47D breast = system: T-47D breast
EKVX NSCLC = system: EKVX NSCLC
MDA-MB-435 = system: MDA-MB-435
SNB-19 CNS = system: SNB-19 CNS
HOP-62 NSCLC = system: HOP-62 NSCLC
TK-10 renal = system: TK-10 renal
U251 CNS = system: U251 CNS
HCT-15 colon = system: HCT-15 colon
SW-620 colon = system: SW-620 colon
NCI-H460 lung = system: NCI-H460 lung
ACHN renal = system: ACHN renal
COLO 205 colon = system: COLO 205 colon
SK-MEL-5 melanoma = system: SK-MEL-5 melanoma
A498 renal = system: A498 renal
RXF 393 renal = system: RXF 393 renal
UO-31 renal = system: UO-31 renal
HL-60(TB) leukemia = system: HL-60(TB) leukemia
786-0 renal = system: 786-0 renal
UACC-257 melanoma = system: UACC-257 melanoma
HCC-2998 colon = system: HCC-2998 colon
SK-MEL-28 melanoma = system: SK-MEL-28 melanoma
KM12 colon = system: KM12 colon
SK-MEL-2 melanoma = system: SK-MEL-2 melanoma
HCT-116 colon = system: HCT-116 colon
SN12C renal = system: SN12C renal
PC-3 prostate = system: PC-3 prostate
BT-549 breast = system: BT-549 breast
NCI-H522 lung = system: NCI-H522 lung
SNB-75 CNS = system: SNB-75 CNS
OVCAR-5 ovarian = system: OVCAR-5 ovarian
OVCAR-3 ovarian = system: OVCAR-3 ovarian
CCRF-CEM leukemia = system: CCRF-CEM leukemia
M14 melanoma = system: M14 melanoma
SF-295 CNS = system: SF-295 CNS
LOX IMVI melanoma = system: LOX IMVI melanoma
SF-268 CNS = system: SF-268 CNS
OVCAR-4 ovarian = system: OVCAR-4 ovarian
MDA-MB-231 breast = system: MDA-MB-231 breast
HT29 colon = system: HT29 colon
NCI-H23 lung = system: NCI-H23 lung
SF-539 CNS = system: SF-539 CNS
OVCAR-8 ovarian = system: OVCAR-8 ovarian

C=CCCCC(=O)CCC(=O)OCC1O[C@@H](O[C@@H]2C(O)[C@@H](OC(C)=O)C(C)O[C@H]2O[C@H](CC=C)CCCCC)C(O)[C@@H](OC(=O)/C(C)=C/C)[C@@H]1OC(=O)/C=C/c1ccccc1 (some centres not stated)
inactive: GI50 (SK-OV-3 ovarian) 959 nM | GI50 (MALME-3M melanoma) 871 nM | GI50 (NCI-H226 lung) 564 nM | GI50 (MOLT-4 leukemia) 2090 nM | GI50 (NCI/ADR-RES ovarian) 1920 nM | GI50 (EKVX NSCLC) 428 nM | GI50 (SNB-19 CNS) 518 nM | GI50 (A498 renal) 612 nM | GI50 (HL-60(TB) leukemia) 673 nM | GI50 (HCC-2998 colon) 1080 nM | GI50 (SK-MEL-2 melanoma) 609 nM | GI50 (OVCAR-5 ovarian) 1440 nM | GI50 (CCRF-CEM leukemia) 551 nM | GI50 (SF-268 CNS) 505 nM | GI50 (OVCAR-4 ovarian) 2290 nM | GI50 (NCI-H23 lung) 995 nM
517 nM: TGI (SK-MEL-5 melanoma)
> 28000 nM: TGI (SNB-75 CNS)
> 14700 nM: TGI (SK-MEL-2 melanoma)
1210 nM: TGI (T-47D breast)
5620 nM: TGI (UACC-62 melanoma)
1830 nM: TGI (SR leukemia)
3060 nM: TGI (HT29 colon)
1550 nM: TGI (COLO 205 colon)
3340 nM: TGI (HL-60(TB) leukemia)
12300 nM: TGI (SF-539 CNS)
> 50000 nM: TGI (A549 NSCLC) | TGI (SK-OV-3 ovarian) | TGI (MALME-3M melanoma) | TGI (NCI-H226 lung) | TGI (MOLT-4 leukemia) | TGI (HS 578T breast) | TGI (NCI/ADR-RES ovarian) | TGI (MCF7 breast) | TGI (K-562 leukemia) | TGI (IGROV1 ovarian) | TGI (DU-145 prostate) | TGI (EKVX NSCLC) | TGI (MDA-MB-435) | TGI (SNB-19 CNS) | TGI (HOP-62 NSCLC) | TGI (TK-10 renal) | TGI (U251 CNS) | TGI (HCT-15 colon) | TGI (SW-620 colon) | TGI (NCI-H460 lung) | TGI (ACHN renal) | TGI (A498 renal) | TGI (RXF 393 renal) | TGI (UO-31 renal) | TGI (786-0 renal) | TGI (HCC-2998 colon) | TGI (SK-MEL-28 melanoma) | TGI (KM12 colon) | TGI (HCT-116 colon) | TGI (PC-3 prostate) | TGI (BT-549 breast) | TGI (NCI-H522 lung) | TGI (OVCAR-5 ovarian) | TGI (OVCAR-3 ovarian) | TGI (CCRF-CEM leukemia) | TGI (SF-268 CNS) | TGI (OVCAR-4 ovarian) | TGI (NCI-H23 lung) | TGI (OVCAR-8 ovarian)
active: GI50 (A549 NSCLC) 34.5 nM | GI50 (HOP-92 NSCLC) 38.4 nM | GI50 (UACC-62 melanoma) 190 nM | GI50 (HS 578T breast) 131 nM | GI50 (MCF7 breast) 31.6 nM | GI50 (K-562 leukemia) 267 nM | GI50 (RPMI-8226 leukemia) 180 nM | GI50 (SR leukemia) 142 nM | GI50 (IGROV1 ovarian) 280 nM | GI50 (DU-145 prostate) 292 nM | GI50 (T-47D breast) 27.3 nM | GI50 (MDA-MB-435) 21.6 nM | GI50 (HOP-62 NSCLC) 235 nM | GI50 (TK-10 renal) 106 nM | GI50 (U251 CNS) 29.7 nM | GI50 (HCT-15 colon) 263 nM | GI50 (SW-620 colon) 122 nM | GI50 (NCI-H460 lung) 65.6 nM | GI50 (ACHN renal) 151 nM | GI50 (COLO 205 colon) 88 nM | GI50 (SK-MEL-5 melanoma) 35.2 nM | GI50 (RXF 393 renal) 76.6 nM | GI50 (UO-31 renal) 33 nM | GI50 (786-0 renal) 316 nM | GI50 (UACC-257 melanoma) 79.1 nM | GI50 (SK-MEL-28 melanoma) 340 nM | GI50 (KM12 colon) 142 nM | GI50 (HCT-116 colon) 26.2 nM | GI50 (SN12C renal) 88.1 nM | GI50 (PC-3 prostate) 198 nM | GI50 (BT-549 breast) 345 nM | GI50 (NCI-H522 lung) 248 nM | GI50 (SNB-75 CNS) 13.3 nM | GI50 (OVCAR-3 ovarian) 290 nM | GI50 (M14 melanoma) 63.3 nM | GI50 (SF-295 CNS) 14.4 nM | GI50 (LOX IMVI melanoma) 27.5 nM | GI50 (MDA-MB-231 breast) 8.66 nM | GI50 (HT29 colon) 25.1 nM | GI50 (SF-539 CNS) 54.6 nM | GI50 (OVCAR-8 ovarian) 173 nM
2110 nM: TGI (SN12C renal)
30.9 nM: TGI (MDA-MB-231 breast)
127 nM: TGI (LOX IMVI melanoma)
8110 nM: TGI (UACC-257 melanoma)
5510 nM: TGI (SF-295 CNS)
3260 nM: TGI (RPMI-8226 leukemia)
